From ChEMBL document CHEMBL1201862, “PubChem BioAssay data set” (2004)
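Grown in 96-well plates, cells were treated for 48 hours with each compound at five concentrations. Insufficient inhibition: endpoint recorded as highest concentration tested. The concentration for 50% growth inhibition is given as GI50.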 Active and inactive are the calls of the source. No stated cut-off is given here; in the data, active = GI50 up to about 1.1 µM and inactive = higher.

How the values were obtained:
Test in all cases: NCI-60 cell line screen, 48 h
786-0 = system: 786-0
A498 = system: A498
A549 = system: A549
ACHN = system: ACHN
BT-549 = system: BT-549
CAKI-1 = system: CAKI-1
CCRF-CEM = system: CCRF-CEM
COLO 205 = system: COLO 205
DU-145 = system: DU-145
EKVX = system: EKVX
HCC 2998 = system: HCC 2998
HCT-116 = system: HCT-116
HCT-15 = system: HCT-15
HL-60 = system: HL-60
HOP-92 = system: HOP-92
HT-29 = system: HT-29
Hs-578T = system: Hs-578T
IGROV-1 = system: IGROV-1
K562 = system: K562
KM12 = system: KM12
LOX IMVI = system: LOX IMVI
M14 = system: M14
MCF7 = system: MCF7
MDA-MB-231 = system: MDA-MB-231
MDA-MB-435 = system: MDA-MB-435
MDA-N = system: MDA-N
MOLT-4 = system: MOLT-4
Malme-3M = system: Malme-3M
NCI-H226 = system: NCI-H226
NCI-H23 = system: NCI-H23
NCI-H460 = system: NCI-H460
NCI-H522 = system: NCI-H522
NCI/ADR-RES = system: NCI/ADR-RES
OVCAR-3 = system: OVCAR-3
OVCAR-4 = system: OVCAR-4
OVCAR-5 = system: OVCAR-5
OVCAR-8 = system: OVCAR-8
PC-3 = system: PC-3
RPMI-8226 = system: RPMI-8226
RXF 393 = system: RXF 393
SF-268 = system: SF-268
SF-295 = system: SF-295
SF-539 = system: SF-539
SK-MEL-28 = system: SK-MEL-28
SK-MEL-2 = system: SK-MEL-2
SK-MEL-5 = system: SK-MEL-5
SK-OV-3 = system: SK-OV-3
SN12C = system: SN12C
SNB-19 = system: SNB-19
SNB-75 = system: SNB-75
SW-620 = system: SW-620
T47D = system: T47D
TK-10 = system: TK-10
U-251 = system: U-251
UACC-257 = system: UACC-257
UACC-62 = system: UACC-62
UO-31 = system: UO-31
HOP-62 = system: HOP-62
SR = system: SR

## CCN(CC)C1=Nc2ccccc2-n2c(C)cnc2C1
786-0
  GI50: > 100 µM (inactive)
A498
  GI50: > 100 µM (inactive)
A549
  GI50: > 100 µM (inactive)
ACHN
  GI50: > 100 µM (inactive)
BT-549
  GI50: > 100 µM (inactive)
CAKI-1
  GI50: > 100 µM (inactive)
CCRF-CEM
  GI50: > 100 µM (inactive)
COLO 205
  GI50: > 100 µM (inactive)
DU-145
  GI50: > 100 µM (inactive)
EKVX
  GI50: > 100 µM (inactive)
HCC 2998
  GI50: > 100 µM (inactive)
HCT-116
  GI50: > 100 µM (inactive)
HCT-15
  GI50: > 100 µM
HL-60
  GI50: > 100 µM (inactive)
HOP-92
  GI50: > 100 µM (inactive)
HT-29
  GI50: > 100 µM (inactive)
Hs-578T
  GI50: > 100 µM (inactive)
IGROV-1
  GI50: > 100 µM (inactive)
K562
  GI50: > 100 µM (inactive)
KM12
  GI50: > 100 µM (inactive)
LOX IMVI
  GI50: > 100 µM (inactive)
M14
  GI50: > 100 µM (inactive)
MCF7
  GI50: > 100 µM (inactive)
MDA-MB-231
  GI50: > 100 µM (inactive)
MDA-MB-435
  GI50: > 100 µM (inactive)
MDA-N
  GI50: > 100 µM (inactive)
MOLT-4
  GI50: > 100 µM (inactive)
Malme-3M
  GI50: > 100 µM (inactive)
NCI-H226
  GI50: > 100 µM (inactive)
NCI-H23
  GI50: > 100 µM (inactive)
NCI-H460
  GI50: > 100 µM (inactive)
NCI-H522
  GI50: > 100 µM (inactive)
NCI/ADR-RES
  GI50: > 100 µM (inactive)
OVCAR-3
  GI50: > 100 µM (inactive)
OVCAR-4
  GI50: > 100 µM (inactive)
OVCAR-5
  GI50: > 100 µM (inactive)
OVCAR-8
  GI50: > 100 µM (inactive)
PC-3
  GI50: > 100 µM (inactive)
RPMI-8226
  GI50: 95.5 µM (inactive)
RXF 393
  GI50: > 100 µM (inactive)
SF-268
  GI50: > 100 µM (inactive)
SF-295
  GI50: > 100 µM (inactive)
SF-539
  GI50: > 100 µM (inactive)
SK-MEL-28
  GI50: > 100 µM (inactive)
SK-MEL-2
  GI50: > 100 µM (inactive)
SK-MEL-5
  GI50: > 100 µM (inactive)
SK-OV-3
  GI50: > 100 µM (inactive)
SN12C
  GI50: > 100 µM (inactive)
SNB-19
  GI50: > 100 µM (inactive)
SNB-75
  GI50: > 100 µM (inactive)
SW-620
  GI50: > 100 µM (inactive)
T47D
  GI50: > 100 µM (inactive)
TK-10
  GI50: > 100 µM (inactive)
U-251
  GI50: > 100 µM (inactive)
UACC-257
  GI50: > 61.5 µM (inactive)
UACC-62
  GI50: > 100 µM (inactive)
UO-31
  GI50: > 88.7 µM (inactive)

## CC1CC(Nc2ccc(Br)cc2)N(C(=O)c2ccc(Br)cc2)O1 (stereo not given)
786-0
  GI50: > 10 µM (inactive)
A549
  GI50: 3.97 µM (inactive)
ACHN
  GI50: 0.678 µM (active)
BT-549
  GI50: > 10 µM (inactive)
CAKI-1
  GI50: 4.61 µM (inactive)
CCRF-CEM
  GI50: 2.51 µM (inactive)
COLO 205
  GI50: 3.49 µM (inactive)
DU-145
  GI50: 2.62 µM (inactive)
EKVX
  GI50: > 10 µM (inactive)
HCC 2998
  GI50: > 10 µM (inactive)
HCT-116
  GI50: 4.42 µM (inactive)
HCT-15
  GI50: 0.526 µM
HL-60
  GI50: 3.76 µM (inactive)
HOP-62
  GI50: 6.49 µM (inactive)
HT-29
  GI50: 1.73 µM (inactive)
Hs-578T
  GI50: 8.3 µM (inactive)
IGROV-1
  GI50: 9.73 µM (inactive)
K562
  GI50: 0.435 µM (active)
M14
  GI50: > 10 µM (inactive)
MCF7
  GI50: 5.81 µM (inactive)
MDA-MB-231
  GI50: > 10 µM (inactive)
MDA-MB-435
  GI50: 1.09 µM (active)
MDA-N
  GI50: 8.93 µM (inactive)
MOLT-4
  GI50: 5.74 µM (inactive)
Malme-3M
  GI50: 6.84 µM (inactive)
NCI-H226
  GI50: > 10 µM (inactive)
NCI-H23
  GI50: > 10 µM (inactive)
NCI-H460
  GI50: 7.48 µM (inactive)
NCI-H522
  GI50: 8.07 µM (inactive)
NCI/ADR-RES
  GI50: 2.19 µM (inactive)
OVCAR-3
  GI50: > 10 µM (inactive)
OVCAR-4
  GI50: > 10 µM (inactive)
OVCAR-5
  GI50: 6.37 µM (inactive)
OVCAR-8
  GI50: 7.4 µM (inactive)
PC-3
  GI50: 2.23 µM (inactive)
RPMI-8226
  GI50: 4.78 µM (inactive)
RXF 393
  GI50: > 10 µM (inactive)
SF-268
  GI50: 1.25 µM (inactive)
SF-295
  GI50: 2.42 µM (inactive)
SF-539
  GI50: 3.52 µM (inactive)
SK-MEL-28
  GI50: > 10 µM (inactive)
SK-MEL-2
  GI50: > 10 µM (inactive)
SK-MEL-5
  GI50: > 10 µM (inactive)
SK-OV-3
  GI50: > 10 µM (inactive)
SN12C
  GI50: 2.75 µM (inactive)
SNB-19
  GI50: > 10 µM (inactive)
SNB-75
  GI50: 8.28 µM (inactive)
SR
  GI50: 2.19 µM (inactive)
SW-620
  GI50: 1.31 µM (inactive)
T47D
  GI50: 9.77 µM (inactive)
TK-10
  GI50: > 10 µM (inactive)
UACC-257
  GI50: 4.46 µM (inactive)
UO-31
  GI50: 2.34 µM (inactive)
